Source: patent publication US11932622B1, “2-(1-(2-hydroxypropyl)-4,5-diphenyl-1H-imidazol-2-yl)pyridine as an anticancer compound” (KING FAISAL UNIVERSITY, priority 2023, dated 2024)

Legend:
[1] = tested on: human osteosarcoma cells (MG-63); test: Assessment of cytotoxicity by SRB assay (MG-63); type: cell-based; settings: 0.01 μM to 100 μM, 72 h
Protocol: (§1) The human prostate cancer cells (PC3) and human osteosarcoma cells (MG-63) were obtained from Nawah Scientific Inc. (Mokatam, Cairo, Egypt) and cultured in DMEM (Dulbecco's modified eagle's medium), Gibco, USA, supplemented with fetal bovine serum (FBS) at a concentration of 10% and 100 U/mL of penicillin and streptomycin (PS). The Cells were incubated at 37° C. in a humidified environment that contained 5% C02.
(§2) Cells were seeded in 96-well plates as aliquots of 100 μL cell suspension and incubated in a complete media for 24 h. Afterward, cells were treated with 2-(1-(2-hydroxypropyl)-4,5-diphenyl-1H-imidazol-2-yl)pyridine at diverse concentrations ranging from 0.01 μM to 100 μM for 72 h. Then, cells were fixed at 4° C. for one hour with 150 μL of 10% trichloroacetic acid (TCA). After washing the cells five times with distilled water, 70 μL of sulforhodamine (SRB) solution (0.4% w/v) was added and incubated for 10 min at room temperature in a dark place. […] Then, 150 μL of Tris pH 10.5 (10 mM) was added, and the absorbance was measured at 540 nm using a BMG LABTECH®-FLUOstar Omega microplate reader (Ortenberg, Germany). Half maximal inhibitory concentrations (IC50) values were calculated for each experiment using GraphPad Prism 6 software. […]
(§3) The inhibition was calculated using the following equation: Inhibition %=100−Average Viability

[2] = tested on: human prostate cancer cells (PC3); test: Assessment of cytotoxicity by SRB assay (PC3); type: cell-based; settings: 0.01 μM to 100 μM, 72 h
Protocol: as §1, §2, §3

## CC(O)Cn1c(-c2ccccn2)nc(-c2ccccc2)c1-c1ccccc1 (stereo not drawn) [2-(1-(2-hydroxypropyl)-4,5-diphenyl-1H-imidazol-2-yl)pyridine]
other
  melting point: 112 to 114 °C
[1]
  antiproliferative activity against osteosarcoma (MG-63) cells: excellent antiproliferative activities
[2]
  antiproliferative activity against prostate cancer cells (PC3): excellent antiproliferative activities
